Assay results published in PMC6832219, “Synthesis of Novel Baicalein Amino Acid Derivatives and Biological Evaluation as Neuroprotective Agents” (Molecules, 2019).

How the values were obtained:
Format in all cases: cell-based
injured SH-SY5Y cells [1] = experiment: Morphological detection of apoptosis using DAPI staining; settings: 6.25, 12.5, and 25 μM, 72 h
Procedure: To further study the mechanism of growth inhibition of compound 8 on injured SH-SY5Y cells, DAPI staining was performed. Injured SH-SY5Y cells were treated with compound 8 at […] concentrations for 72 h. […] When the concentration of the drug increased, the shape of the cells became regular.
SH-SY5Y cells in logarithmic growth phase were seeded in 12-well plates (2.4 × 10^4 cells/well). After incubation for 24 h at 37 °C in a humidified atmosphere with 5% CO2, various concentrations of compound 8 was added to the cultures, and the plate was incubated for further 72 h. After discarding the cell culture medium, washing twice with PBS, and fixing with 4% paraformaldehyde for 10 min, 4′,6-diamidino-2-phenylindole (DAPI, 1 mg/mL, Molecular Probes/Invitrogen Life Technologies, Carlsbad, CA, USA), staining was performed for 5 min in the dark, and nuclear fragments were observed under fluorescence microscope.
Figure 3 Morphological detection of apoptosis using 4′,6-diamidino-2-phenylindole (DAPI) staining (200×) on injured SH-SY5Y cells treated with compound 8, (a) control group, (b) injury group, (c) 6.25 μM, (d) 12.5 μM, and (e) 25 μM.

injured SH-SY5Y cells [2] = experiment: Morphological detection of apoptosis using Giemsa staining; settings: 6.25, 12.5, 25 μM, 72 h
Procedure: SH-SY5Y cells in the logarithmic growth phase were seeded in 12-well plates (1.2 × 10^4 cells/well). After incubation for 24 h at 37 °C with 5% CO2, various concentrations ([…] concentrations) of compound 8 were added to the cultures, and the plate was incubated for a further 72 h. Then, we discarded the cell culture fluid, washed twice with phosphate-buffered saline (PBS), and fixed the cells with cold methanol. The SH-SY5Y cells were stained with 6% Giemsa solution for 5 min, washed with water, and dried. The cell morphological changes were observed under an inverted microscope.
Figure 2 Morphological detection of apoptosis using Giemsa staining (200×) on injured SH-SY5Y cells treated with compound 8: (a) control group, (b) injury group, (c) 6.25 μM, (d) 12.5 μM, and (e) 25 μM.

H9C2 cells = experiment: Toxicity on normal H9C2 cells (MTT assay)
Procedure: To study cytotoxicity on normal cells, the cytotoxicity of compounds against normal H9C2 cells were tested.
The SH-SY5Y ([…]) and H9C2 ([…]) cell lines were obtained from the Chinese Academy of Medical Sciences and Peking Union Medical College. All of the cell lines were grown in dulbecco’s modified eagle medium (DMEM) with 10% (v/v) fetal bovine serum (FBS) and 1% (v/v) penicillin/streptomycin (Thermo Technologies, New York, NY, USA), under a humidified atmosphere containing 5% CO2 at 37 °C. The baicalein derivatives were dissolved in DMSO (Sigma, St. Louis, MO, USA) and added at various concentrations to the cell culture.
The protective effect of these compounds was evaluated on SH-SY5Y and H9C2 cell lines via the MTT method. The cells growing in the logarithmic phase were cultured in 96-well plates at a density 3 × 10^3 cells/well and incubated for 24 h. Then each well was treated with the required concentrations (50 µM concentrations, 25 µM concentrations, 12.5µM concentrations, 6.25 µM concentrations, and 3.125 µM concentrations) of baicalein derivatives, and incubated 36 h at 37 °C with 5% CO2. After that, the cells were induced by H2O2 (final concentration, […]) for 12 h. Control-differentiated cells were injected with new growth media at equal amounts. Before […] MTT solution (5 mg/mL) was added to each well, the cell culture fluid was discarded, and […] fresh cell culture fluid was added. The plate was incubated for a further 4 h at 37 °C. The cell supernatant medium was removed carefully, without disturbing the attached cells, and formazan crystals were solubilized by adding 150 μL DMSO into each well. The absorbance was measured at 490 nm with a plate reader (BIORAD 550 spectrophotometer, Bio-rad Life Science Development Ltd., Beijing, China). H2O2 was dissolved in DMEM medium. Wells without drugs were used as blanks. The EC50 values were defined as the concentrations that causes the maximum effect of 50%; IC50 values were defined as the concentration of compound which gives 50% growth inhibition, and were calculated using the GraphPad Prism 5. The proliferation rates of damaged SH-SY5Y cells were calculated in the following formula (1): [OD490 (compound) − OD490 (CoCl2)]/[OD490 (NGF) − OD490 (CoCl2)] × 100%(1) The EC50 values were using the equation −pEC50 = log Cmax − log 2 × (ΣP − 0.75 + 0.25Pmax + 0.25Pmin)(2) where Cmax is the maximum concentration, ΣP is the sum of proliferation rates, Pmax is the maximum value of the proliferation rate, and Pmin is the minimum value of the proliferation rate. Cell viability was expressed as a percentage of the control.
The inhibition rate was calculated in the following equation: % inhibition = 1 − (Sample group OD/Control group OD) × 100%(3)

With `O=C(NC(Cc1ccccc1)C(=O)Oc1c(O)cc2oc(-c3ccccc3)cc(=O)c2c1O)OCc1ccccc1` (centres unmarked) [Compound 8, 5,7-dihydroxy-4-oxo-2-phenyl-4H-chromen-6-yl 2-{[(benzyloxy)carbonyl]amino}-3-phenyl-proppanpate] the “Nuclear morphology / apoptosis (DAPI staining)” value (injured SH-SY5Y cells [1]) was “protects injured SH-SY5Y cells from apoptosis”, the “Nuclear and cytoplasmic morphological changes (Giemsa staining)” value (injured SH-SY5Y cells [2]) was “alleviating morphological manifestations of cell damage” and the viability at 6.25 µM (H9C2 cells; 6.25 µM, H9C2 cells, MTT, read-out: Survival Rate (%)) was 195%. The viability at 12.5 µM (H9C2 cells; 12.5 µM, H9C2 cells, MTT, read-out: Survival Rate (%)) was 182%, the viability at 25 µM (H9C2 cells; 25 µM, H9C2 cells, MTT, read-out: Survival Rate (%)) was 169% and the viability at 50 µM (H9C2 cells; 50 µM, H9C2 cells, MTT, read-out: Survival Rate (%)) was 168%. The “Toxicity against H9C2 cells (in words)” value (H9C2 cells; normal H9C2 cells) was “lower toxicity on the H9C2 cell line” and the IC50 (H9C2 cells; normal H9C2 cells, MTT) was > 100 µM.
